Assays:
[1] = target: T1, MEKK3 (Homo sapiens, UniProt Q99759); experiment: MEKK3 mobility band shift on high-ratio acrylamide:bis-acrylamide SDS-PAGE of lysates from treated cells; format: cell-based; conditions: MEKK3 expressed in treated HEK293 cells; data not shown
T1 construct: expressed in transfected cells; host or cells: HEK 293
T1 sequence (Q99759 1-626): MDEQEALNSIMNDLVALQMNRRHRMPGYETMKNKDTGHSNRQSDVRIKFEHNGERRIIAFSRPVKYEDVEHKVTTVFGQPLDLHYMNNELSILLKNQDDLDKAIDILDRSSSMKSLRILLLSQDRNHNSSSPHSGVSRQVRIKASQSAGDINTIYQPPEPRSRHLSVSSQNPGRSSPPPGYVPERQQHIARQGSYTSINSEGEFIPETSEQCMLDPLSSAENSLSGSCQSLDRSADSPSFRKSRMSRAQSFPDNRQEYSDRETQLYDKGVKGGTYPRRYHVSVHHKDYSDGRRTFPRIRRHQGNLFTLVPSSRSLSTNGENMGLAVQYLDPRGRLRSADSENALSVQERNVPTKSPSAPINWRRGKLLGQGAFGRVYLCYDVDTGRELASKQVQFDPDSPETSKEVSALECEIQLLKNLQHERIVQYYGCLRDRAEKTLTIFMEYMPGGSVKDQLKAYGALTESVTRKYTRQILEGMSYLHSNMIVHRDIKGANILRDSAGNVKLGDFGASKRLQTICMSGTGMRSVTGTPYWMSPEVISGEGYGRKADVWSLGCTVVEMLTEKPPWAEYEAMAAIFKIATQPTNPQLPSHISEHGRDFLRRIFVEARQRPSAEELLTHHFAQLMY

[2] = target: T2, MEKK3-14-3-3 interaction (Homo sapiens, UniProt Q99759); experiment: Co-immunoprecipitation of 14-3-3 with FLAG-MEKK3 from HEK 293 cells treated with kinase inhibitor; format: cell-based; conditions: HEK 293 cells with wt MEKK3; 1 μM, 5 μM or 10 μM for 20 min prior to solubilization
T2 construct: expressed in transfected cells; host or cells: HEK 293
T2 sequence (Q99759 1-626): T1 sequence (Q99759 1-626)
Description: A, B. HEK 293 cells were transfected with wildtype (wt) MEKK3, K391M MEKK3, or S526A MEKK (shown in B) or empty vector. After 24 hours, cells were solubilized, and FLAG-MEKK3 was immunoprecipitated with anti-FLAG M2-conjugated agarose. Proteins were resolved by SDS-PAGE, and immunoblotted with anti-FLAG antibody or anti-14-3-3β antibody (which recognizes the family of 14-3-3 proteins). C. HEK 293 cells were transfected with wt MEKK3 for 24 hours, and then treated with staurosporine (1 μM, 5 μM, or 10 μM) for 20 min prior to solubilization. MEKK3 and 14-3-3 were detected as in A.
HEK 293 cells were plated onto 35-mm-diameter dishes at 80% confluency, and transfected with 100 to 500 ng of cDNA using Lipofectamine-2000 (Gibco-BRL) following the manufacturer's protocol. Transfection medium was removed and replaced with complete DMEM overnight.
Cells were lysed in 50 mM Tris-HCl, pH 7.4, 1% Triton X-100, 25 mM NaF, 25 mM β-glycerophosphate, 5 mM EDTA, 0.05% SDS, 1.0 μg/ml microcystin LR, and protease inhibitors. […] FLAG was stained with anti-FLAG M2 mouse monoclonal (Sigma), and 14-3-3 isoforms were detected with anti-14-3-3β (H8; Santa Cruz Biotechnology).
The family of 14-3-3 proteins was detected by immunoblotting with a pan-specific 14-3-3 antibody raised against a common sequence present in all family members. […]

Row | SMILES | MEKK3 band shift (mobility shift on SDS-PAGE) [1] | MEKK3-14-3-3 interaction (14-3-3 co-immunoprecipitation) [2]
1 | N#CC(=C(/N)Sc1ccccc1N)/C(C#N)=C(\N)Sc1ccccc1N [U0126] | had no effect on mobility shift | –
2 | CN[C@@H]1C[C@H]2O[C@@](C)([C@@H]1OC)n1c3ccccc3c3c4c(c5c6ccccc6n2c5c31)C(=O)NC4 [staurosporine] | reduced the MEKK3 band shift | disrupted MEKK3-14-3-3 interaction

From patent US20090156466A1, “Characterization of a MEKK binding site and uses thereof” (priority 2007, published 2009)
